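Following 48 hours of exposure in 96-well plates, responses at five concentrations were used to interpolate endpoints linearly. TGI marks complete inhibition of growth.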
Tests used:
Assay in all cases: DTP human tumour cell line panel, 48 h
786-0 renal = system: 786-0 renal
A498 renal = system: A498 renal
A549 NSCLC = system: A549 NSCLC
ACHN renal = system: ACHN renal
BT-549 breast = system: BT-549 breast
CAKI-1 renal = system: CAKI-1 renal
CCRF-CEM leukemia = system: CCRF-CEM leukemia
COLO 205 colon = system: COLO 205 colon
DU-145 prostate = system: DU-145 prostate
EKVX NSCLC = system: EKVX NSCLC
HCC-2998 colon = system: HCC-2998 colon
HCT-116 colon = system: HCT-116 colon
HCT-15 colon = system: HCT-15 colon
HL-60(TB) leukemia = system: HL-60(TB) leukemia
HOP-62 NSCLC = system: HOP-62 NSCLC
HOP-92 NSCLC = system: HOP-92 NSCLC
HS 578T breast = system: HS 578T breast
HT29 colon = system: HT29 colon
IGROV1 ovarian = system: IGROV1 ovarian
K-562 leukemia = system: K-562 leukemia
KM12 colon = system: KM12 colon
LOX IMVI melanoma = system: LOX IMVI melanoma
M14 melanoma = system: M14 melanoma
MALME-3M melanoma = system: MALME-3M melanoma
MCF7 breast = system: MCF7 breast
MDA-MB-231 breast = system: MDA-MB-231 breast
MDA-MB-435 = system: MDA-MB-435
MDA-N = system: MDA-N
MOLT-4 leukemia = system: MOLT-4 leukemia
NCI-H226 lung = system: NCI-H226 lung
NCI-H23 lung = system: NCI-H23 lung
NCI-H460 lung = system: NCI-H460 lung
NCI-H522 lung = system: NCI-H522 lung
OVCAR-3 ovarian = system: OVCAR-3 ovarian
OVCAR-4 ovarian = system: OVCAR-4 ovarian
OVCAR-5 ovarian = system: OVCAR-5 ovarian
OVCAR-8 ovarian = system: OVCAR-8 ovarian
PC-3 prostate = system: PC-3 prostate
RPMI-8226 leukemia = system: RPMI-8226 leukemia
RXF 393 renal = system: RXF 393 renal
SF-268 CNS = system: SF-268 CNS
SF-295 CNS = system: SF-295 CNS
SF-539 CNS = system: SF-539 CNS
SK-MEL-2 melanoma = system: SK-MEL-2 melanoma
SK-MEL-28 melanoma = system: SK-MEL-28 melanoma
SK-MEL-5 melanoma = system: SK-MEL-5 melanoma
SK-OV-3 ovarian = system: SK-OV-3 ovarian
SN12C renal = system: SN12C renal
SNB-19 CNS = system: SNB-19 CNS
SR leukemia = system: SR leukemia
SW-620 colon = system: SW-620 colon
T-47D breast = system: T-47D breast
TK-10 renal = system: TK-10 renal
U251 CNS = system: U251 CNS
UACC-257 melanoma = system: UACC-257 melanoma
UO-31 renal = system: UO-31 renal
NCI/ADR-RES ovarian = system: NCI/ADR-RES ovarian
SNB-75 CNS = system: SNB-75 CNS
UACC-62 melanoma = system: UACC-62 melanoma

Measured: TGI

CC(C)=CCN1CC(C)C(=O)Nc2ccccc21 (stereo unspecified)
not listed: NCI/ADR-RES ovarian | SNB-75 CNS | UACC-62 melanoma
> 100 µM: all other assays above

c1ccc(CCc2cccnc2)nc1
not listed: CCRF-CEM leukemia | DU-145 prostate | HCC-2998 colon | HL-60(TB) leukemia
> 100 µM: all other assays above

Source: PubChem BioAssay (NCI)
